Laboratory results as given in ChEMBL document CHEMBL1201862, “PubChem BioAssay data set” (2004).
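Cultured in 96-well plates, cells were exposed to test compound for 48 hours across five concentrations. GI50 marks 50% less growth.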 Calls of active or inactive are those of the source. No stated cut-off is given here; in the data, active = GI50 up to about 1.1 µM and inactive = higher. Square brackets hold non-standard residues; d marks the D form. Peptide text beside a SMILES is read from it. * marks the point of attachment. NMeV = CN[C@H](C(=O)O)C(C)C; X28 = COc1ccc(CN*)c(OC)c1; Octanoyl = CCCCCCCC(=O)*; dNMeA = CN[C@H](C)C(=O)O

What was measured:
Assay in all cases: NCI-60 cell line screen, 48 h
A498 = system: A498
A549 = system: A549
ACHN = system: ACHN
BT-549 = system: BT-549
CAKI-1 = system: CAKI-1
CCRF-CEM = system: CCRF-CEM
COLO 205 = system: COLO 205
DU-145 = system: DU-145
HCC 2998 = system: HCC 2998
HCT-116 = system: HCT-116
HCT-15 = system: HCT-15
HL-60 = system: HL-60
HOP-92 = system: HOP-92
HT-29 = system: HT-29
IGROV-1 = system: IGROV-1
K562 = system: K562
KM12 = system: KM12
M14 = system: M14
MCF7 = system: MCF7
MDA-MB-231 = system: MDA-MB-231
MDA-MB-435 = system: MDA-MB-435
MDA-N = system: MDA-N
NCI-H226 = system: NCI-H226
NCI-H23 = system: NCI-H23
NCI-H460 = system: NCI-H460
NCI-H522 = system: NCI-H522
NCI/ADR-RES = system: NCI/ADR-RES
OVCAR-3 = system: OVCAR-3
OVCAR-4 = system: OVCAR-4
OVCAR-5 = system: OVCAR-5
OVCAR-8 = system: OVCAR-8
PC-3 = system: PC-3
RPMI-8226 = system: RPMI-8226
RXF 393 = system: RXF 393
SF-268 = system: SF-268
SF-295 = system: SF-295
SF-539 = system: SF-539
SK-MEL-28 = system: SK-MEL-28
SK-MEL-5 = system: SK-MEL-5
SN12C = system: SN12C
SNB-19 = system: SNB-19
SNB-75 = system: SNB-75
SR = system: SR
SW-620 = system: SW-620
T47D = system: T47D
TK-10 = system: TK-10
U-251 = system: U-251
UACC-257 = system: UACC-257
UACC-62 = system: UACC-62
UO-31 = system: UO-31
786-0 = system: 786-0
EKVX = system: EKVX
HOP-62 = system: HOP-62
Hs-578T = system: Hs-578T
LOX IMVI = system: LOX IMVI
MOLT-4 = system: MOLT-4
Malme-3M = system: Malme-3M
SK-MEL-2 = system: SK-MEL-2
SK-OV-3 = system: SK-OV-3

COC(=O)C(Cc1cn(C(C)=O)c2ccccc12)P(=O)(OC)OC (stereo not drawn)
GI50 (A498): > 100 µM (inactive) | GI50 (A549): > 100 µM (inactive) | GI50 (ACHN): > 100 µM (inactive) | GI50 (BT-549): > 100 µM (inactive) | GI50 (CAKI-1): > 100 µM (inactive) | GI50 (CCRF-CEM): > 100 µM (inactive) | GI50 (COLO 205): > 100 µM (inactive) | GI50 (DU-145): > 100 µM (inactive) | GI50 (HCC 2998): > 100 µM (inactive) | GI50 (HCT-116): > 100 µM (inactive) | GI50 (HCT-15): > 100 µM | GI50 (HL-60): > 100 µM (inactive) | GI50 (HOP-92): > 100 µM (inactive) | GI50 (HT-29): > 100 µM (inactive) | GI50 (IGROV-1): > 100 µM (inactive) | GI50 (K562): > 100 µM (inactive) | GI50 (KM12): > 100 µM (inactive) | GI50 (M14): > 100 µM (inactive) | GI50 (MCF7): 20.7 µM (inactive) | GI50 (MDA-MB-231): > 100 µM (inactive) | GI50 (MDA-MB-435): > 100 µM (inactive) | GI50 (MDA-N): > 100 µM (inactive) | GI50 (NCI-H226): > 100 µM (inactive) | GI50 (NCI-H23): > 100 µM (inactive) | GI50 (NCI-H460): > 100 µM (inactive) | GI50 (NCI-H522): > 100 µM (inactive) | GI50 (NCI/ADR-RES): > 100 µM (inactive) | GI50 (OVCAR-3): > 100 µM (inactive) | GI50 (OVCAR-4): > 100 µM (inactive) | GI50 (OVCAR-5): 95.3 µM (inactive) | GI50 (OVCAR-8): > 100 µM (inactive) | GI50 (PC-3): > 100 µM (inactive) | GI50 (RPMI-8226): > 100 µM (inactive) | GI50 (RXF 393): > 100 µM (inactive) | GI50 (SF-268): > 100 µM (inactive) | GI50 (SF-295): > 100 µM (inactive) | GI50 (SF-539): > 100 µM (inactive) | GI50 (SK-MEL-28): > 100 µM (inactive) | GI50 (SK-MEL-5): > 100 µM (inactive) | GI50 (SN12C): > 100 µM (inactive) | GI50 (SNB-19): > 100 µM (inactive) | GI50 (SNB-75): 60.3 µM (inactive) | GI50 (SR): > 100 µM (inactive) | GI50 (SW-620): > 100 µM (inactive) | GI50 (T47D): > 100 µM (inactive) | GI50 (TK-10): > 100 µM (inactive) | GI50 (U-251): > 100 µM (inactive) | GI50 (UACC-257): > 100 µM (inactive) | GI50 (UACC-62): > 100 µM (inactive) | GI50 (UO-31): 72.9 µM (inactive)

CCCCCCCC(=O)N[C@H](C(=O)N[C@H](C(=O)N(C)[C@H](C(=O)N1CCC[C@H]1C(=O)N(C)[C@H](C)C(=O)NCc1ccc(OC)cc1OC)C(C)C)C(C)C)C(C)C (Octanoyl-VV[NMeV]P[dNMeA]-X28)
GI50 (786-0): 23.2 µM (inactive) | GI50 (A498): 1.95 µM (inactive) | GI50 (A549): 6.55 µM (inactive) | GI50 (ACHN): 5.26 µM (inactive) | GI50 (BT-549): 11.8 µM (inactive) | GI50 (CAKI-1): 16.4 µM (inactive) | GI50 (CCRF-CEM): 11.5 µM (inactive) | GI50 (COLO 205): 5.74 µM (inactive) | GI50 (DU-145): 25.3 µM (inactive) | GI50 (EKVX): 6.89 µM (inactive) | GI50 (HCC 2998): 13.4 µM (inactive) | GI50 (HCT-116): 5.93 µM (inactive) | GI50 (HCT-15): 21.5 µM | GI50 (HL-60): 3.68 µM (inactive) | GI50 (HOP-62): 20.4 µM (inactive) | GI50 (HOP-92): 7.6 µM (inactive) | GI50 (HT-29): 4.23 µM (inactive) | GI50 (Hs-578T): 9.16 µM (inactive) | GI50 (IGROV-1): 3.75 µM (inactive) | GI50 (K562): 5.62 µM (inactive) | GI50 (KM12): 4.62 µM (inactive) | GI50 (LOX IMVI): 12.2 µM (inactive) | GI50 (M14): 7.82 µM (inactive) | GI50 (MCF7): 7.53 µM (inactive) | GI50 (MDA-MB-231): 10.5 µM (inactive) | GI50 (MDA-MB-435): 5.22 µM (inactive) | GI50 (MOLT-4): 14.2 µM (inactive) | GI50 (Malme-3M): 8.17 µM (inactive) | GI50 (NCI-H226): 4.95 µM (inactive) | GI50 (NCI-H23): 13.6 µM (inactive) | GI50 (NCI-H460): 8.34 µM (inactive) | GI50 (NCI-H522): 7.21 µM (inactive) | GI50 (NCI/ADR-RES): 42.1 µM (inactive) | GI50 (OVCAR-3): 4.2 µM (inactive) | GI50 (OVCAR-4): 6.14 µM (inactive) | GI50 (OVCAR-5): 25.5 µM (inactive) | GI50 (OVCAR-8): 5.58 µM (inactive) | GI50 (PC-3): 7.01 µM (inactive) | GI50 (RPMI-8226): 3.02 µM (inactive) | GI50 (RXF 393): 8.57 µM (inactive) | GI50 (SF-268): 15.2 µM (inactive) | GI50 (SF-295): 7.96 µM (inactive) | GI50 (SF-539): 18.8 µM (inactive) | GI50 (SK-MEL-28): 8.77 µM (inactive) | GI50 (SK-MEL-2): 12.9 µM (inactive) | GI50 (SK-MEL-5): 3.3 µM (inactive) | GI50 (SK-OV-3): 28.9 µM (inactive) | GI50 (SN12C): 18 µM (inactive) | GI50 (SNB-19): 12.7 µM (inactive) | GI50 (SNB-75): 21.3 µM (inactive) | GI50 (SR): 17.6 µM (inactive) | GI50 (SW-620): 7.71 µM (inactive) | GI50 (T47D): 4.29 µM (inactive) | GI50 (TK-10): 22.3 µM (inactive) | GI50 (U-251): 4.79 µM (inactive) | GI50 (UACC-257): 5.21 µM (inactive) | GI50 (UACC-62): 7.21 µM (inactive) | GI50 (UO-31): 17.6 µM (inactive)
